According to patent publication US9693556B2, “Herbicidal pyridazinone derivatives” (SYNGENTA LIMITED, priority 2011, dated 2017):

Columns and labels:
Assay type in all cases: in vivo
[1] = system: Alopecurus myosuroides (ALOMY); experiment: Pre-emergence herbicidal glasshouse test on Alopecurus myosuroides; settings: pre-emergence; 1000 g/h; evaluated after 13 days
In short: (§1)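 Steps: sow seeds in standard soil; cultivate 1 d (pre-) or 8 d (post-emergence) at 24/16 °C, 14 h light, 65% humidity; spray 1000 g/h in acetone/water plus Tween 20; grow on, watering twice daily; score percentage damage after 13 d.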

Setaria faberi (SETFA) [2] = experiment: Pre-emergence herbicidal glasshouse test on Setaria faberi; settings: pre-emergence; 1000 g/h; evaluated after 13 days
In short: as §1

[3] = system: Echinochloa crus-galli (ECHCG); experiment: Pre-emergence herbicidal glasshouse test on Echinochloa crus-galli; settings: pre-emergence; 1000 g/h; evaluated after 13 days
In short: as §1

Solanum nigrum (SOLNI) [4] = experiment: Pre-emergence herbicidal glasshouse test on Solanum nigrum; settings: pre-emergence; 1000 g/h; evaluated after 13 days
In short: as §1

[5] = system: Amaranthus retoflexus (AMARE); experiment: Pre-emergence herbicidal glasshouse test on Amaranthus retoflexus; settings: pre-emergence; 1000 g/h; evaluated after 13 days
In short: as §1

[6] = system: Ipomoea hederacea (IPOHE); experiment: Pre-emergence herbicidal glasshouse test on Ipomoea hederacea; settings: pre-emergence; 1000 g/h; evaluated after 13 days
In short: as §1

[7] = system: Alopecurus myosuroides (ALOMY); experiment: Post-emergence herbicidal glasshouse test on Alopecurus myosuroides; settings: post-emergence; 1000 g/h; evaluated after 13 days
In short: as §1

Setaria faberi (SETFA) [8] = experiment: Post-emergence herbicidal glasshouse test on Setaria faberi; settings: post-emergence; 1000 g/h; evaluated after 13 days
In short: as §1

[9] = system: Echinochloa crus-galli (ECHCG); experiment: Post-emergence herbicidal glasshouse test on Echinochloa crus-galli; settings: post-emergence; 1000 g/h; evaluated after 13 days
In short: as §1

Solanum nigrum (SOLNI) [10] = experiment: Post-emergence herbicidal glasshouse test on Solanum nigrum; settings: post-emergence; 1000 g/h; evaluated after 13 days
In short: as §1

[11] = system: Amaranthus retoflexus (AMARE); experiment: Post-emergence herbicidal glasshouse test on Amaranthus retoflexus; settings: post-emergence; 1000 g/h; evaluated after 13 days
In short: as §1

[12] = system: Ipomoea hederacea (IPOHE); experiment: Post-emergence herbicidal glasshouse test on Ipomoea hederacea; settings: post-emergence; 1000 g/h; evaluated after 13 days
In short: as §1

SMILES	PRE Application ALOMY herbicidal damage (five point scale) [1]	PRE Application SETFA herbicidal damage (five point scale) (Setaria faberi (SETFA) [2])	PRE Application ECHCG herbicidal damage (five point scale) [3]	PRE Application SOLNI herbicidal damage (five point scale) (Solanum nigrum (SOLNI) [4])	PRE Application AMARE herbicidal damage (five point scale) [5]	PRE Application IPOHE herbicidal damage (five point scale) [6]	POST Application ALOMY herbicidal damage (five point scale) [7]	POST Application SETFA herbicidal damage (five point scale) (Setaria faberi (SETFA) [8])	POST Application ECHCG herbicidal damage (five point scale) [9]	POST Application SOLNI herbicidal damage (five point scale) (Solanum nigrum (SOLNI) [10])	POST Application AMARE herbicidal damage (five point scale) [11]	POST Application IPOHE herbicidal damage (five point scale) [12]
Cn1ncc(-c2cc(OC(F)(F)F)ccc2Cl)c(O)c1=O [Compound 1.100]	1 (1=0-19% damage)	1 (1=0-19% damage)	1 (1=0-19% damage)	1 (1=0-19% damage)	1 (1=0-19% damage)	1 (1=0-19% damage)	1 (1=0-19% damage)	1 (1=0-19% damage)	1 (1=0-19% damage)	2 (2=20-39% damage)	2 (2=20-39% damage)	2 (2=20-39% damage)
Cc1ccc(Cl)c(-c2cnn(C)c(=O)c2O)c1 [Compound 1.101]	1 (1=0-19% damage)	1 (1=0-19% damage)	1 (1=0-19% damage)	1 (1=0-19% damage)	1 (1=0-19% damage)	1 (1=0-19% damage)	1 (1=0-19% damage)	1 (1=0-19% damage)	1 (1=0-19% damage)	1 (1=0-19% damage)	1 (1=0-19% damage)	1 (1=0-19% damage)
COc1ccc(-c2cnn(C)c(=O)c2O)c(Cl)c1 [Compound 1.103]	1 (1=0-19% damage)	1 (1=0-19% damage)	1 (1=0-19% damage)	1 (1=0-19% damage)	1 (1=0-19% damage)	1 (1=0-19% damage)	1 (1=0-19% damage)	1 (1=0-19% damage)	1 (1=0-19% damage)	2 (2=20-39% damage)	1 (1=0-19% damage)	1 (1=0-19% damage)
Cn1ncc(-c2ccc(S(C)(=O)=O)cc2Cl)c(O)c1=O [Compound 1.105]	2 (2=20-39% damage)	2 (2=20-39% damage)	5 (5=80-100% damage)	4 (4=60-79% damage)	5 (5=80-100% damage)	1 (1=0-19% damage)	2 (2=20-39% damage)	1 (1=0-19% damage)	5 (5=80-100% damage)	5 (5=80-100% damage)	5 (5=80-100% damage)	5 (5=80-100% damage)
Cn1ncc(-c2c(Br)cccc2S(C)(=O)=O)c(O)c1=O [Compound 1.106]	1 (1=0-19% damage)	1 (1=0-19% damage)	1 (1=0-19% damage)	1 (1=0-19% damage)	4 (4=60-79% damage)	1 (1=0-19% damage)	2 (2=20-39% damage)	2 (2=20-39% damage)	4 (4=60-79% damage)	4 (4=60-79% damage)	5 (5=80-100% damage)	2 (2=20-39% damage)
Cn1ncc(-c2ccc(S(C)(=O)=O)c(O)c2Cl)c(O)c1=O [Compound 1.108]	1 (1=0-19% damage)	1 (1=0-19% damage)	1 (1=0-19% damage)	1 (1=0-19% damage)	1 (1=0-19% damage)	1 (1=0-19% damage)	1 (1=0-19% damage)	1 (1=0-19% damage)	1 (1=0-19% damage)	3 (3=40-59% damage)	3 (3=40-59% damage)	1 (1=0-19% damage)
Cn1ncc(-c2ccc(Cl)cc2[N+](=O)[O-])c(O)c1=O [Compound 1.109]	1 (1=0-19% damage)	1 (1=0-19% damage)	1 (1=0-19% damage)	2 (2=20-39% damage)	5 (5=80-100% damage)	1 (1=0-19% damage)	1 (1=0-19% damage)	1 (1=0-19% damage)	2 (2=20-39% damage)	4 (4=60-79% damage)	5 (5=80-100% damage)	4 (4=60-79% damage)
Cn1ncc(-c2ccc(C(F)(F)F)cc2[N+](=O)[O-])c(O)c1=O [Compound 1.110]	1 (1=0-19% damage)	1 (1=0-19% damage)	1 (1=0-19% damage)	1 (1=0-19% damage)	5 (5=80-100% damage)	1 (1=0-19% damage)	1 (1=0-19% damage)	1 (1=0-19% damage)	3 (3=40-59% damage)	5 (5=80-100% damage)	5 (5=80-100% damage)	5 (5=80-100% damage)
Cn1ncc(-c2ccc(F)cc2C(F)(F)F)c(O)c1=O [Compound 1.112]	1 (1=0-19% damage)	1 (1=0-19% damage)	1 (1=0-19% damage)	1 (1=0-19% damage)	1 (1=0-19% damage)	1 (1=0-19% damage)	1 (1=0-19% damage)	1 (1=0-19% damage)	1 (1=0-19% damage)	4 (4=60-79% damage)	5 (5=80-100% damage)	4 (4=60-79% damage)
Cn1ncc(-c2ccc(Cl)cc2C(F)(F)F)c(O)c1=O [Compound 1.113]	1 (1=0-19% damage)	1 (1=0-19% damage)	1 (1=0-19% damage)	4 (4=60-79% damage)	5 (5=80-100% damage)	2 (2=20-39% damage)	2 (2=20-39% damage)	3 (3=40-59% damage)	2 (2=20-39% damage)	5 (5=80-100% damage)	5 (5=80-100% damage)	5 (5=80-100% damage)
Cn1ncc(-c2ccccc2Cl)c(O)c1=O [Compound 1.114]	1 (1=0-19% damage)	1 (1=0-19% damage)	1 (1=0-19% damage)	1 (1=0-19% damage)	1 (1=0-19% damage)	1 (1=0-19% damage)	1 (1=0-19% damage)	1 (1=0-19% damage)	1 (1=0-19% damage)	1 (1=0-19% damage)	1 (1=0-19% damage)	1 (1=0-19% damage)
